From US9499535B2, “Kinase inhibitors” (ORIGENIS GMBH, priority 2011, dated 2016)

Columns and labels:
SYK kinase = molecular target: T1, SYK kinase (Homo sapiens, UniProt P43405); assay: SYK assay (OMNIA Kinase Assay, Invitrogen); format: biochemical; conditions: apparent Ki calculated from the IC50 using the Cheng-Prusoff equation; 1 mM ATP, 10 μM Peptide Substrate; read-out: SYK Activities: Ki
T1 construct: purchased Invitrogen, Carlsbad
Method in brief: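 Continuous SOX-fluorescence (Omnia) readout of Tyr 7 peptide (10 μM) phosphorylation with 1 mM ATP and 0.2 mM DTT at 30° C, started by SYK addition. Fluorescence (λex 360/λem 485 nm) was read every 30 s for 30 min. IC50 from velocity vs concentration; apparent Ki via Cheng-Prusoff.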

LRRK2 = LRRK2 (Homo sapiens, UniProt Q5S007); assay: LRRK2 assay (LanthaScreen Eu Kinase Binding Assay); conditions: 5 nM LRRK2, 10 nM tracer 236, RT 1 h; read-out: LRRK2 Activites: IC50
Chain of LRRK2 (Q5S007 970-2527 limits assumed): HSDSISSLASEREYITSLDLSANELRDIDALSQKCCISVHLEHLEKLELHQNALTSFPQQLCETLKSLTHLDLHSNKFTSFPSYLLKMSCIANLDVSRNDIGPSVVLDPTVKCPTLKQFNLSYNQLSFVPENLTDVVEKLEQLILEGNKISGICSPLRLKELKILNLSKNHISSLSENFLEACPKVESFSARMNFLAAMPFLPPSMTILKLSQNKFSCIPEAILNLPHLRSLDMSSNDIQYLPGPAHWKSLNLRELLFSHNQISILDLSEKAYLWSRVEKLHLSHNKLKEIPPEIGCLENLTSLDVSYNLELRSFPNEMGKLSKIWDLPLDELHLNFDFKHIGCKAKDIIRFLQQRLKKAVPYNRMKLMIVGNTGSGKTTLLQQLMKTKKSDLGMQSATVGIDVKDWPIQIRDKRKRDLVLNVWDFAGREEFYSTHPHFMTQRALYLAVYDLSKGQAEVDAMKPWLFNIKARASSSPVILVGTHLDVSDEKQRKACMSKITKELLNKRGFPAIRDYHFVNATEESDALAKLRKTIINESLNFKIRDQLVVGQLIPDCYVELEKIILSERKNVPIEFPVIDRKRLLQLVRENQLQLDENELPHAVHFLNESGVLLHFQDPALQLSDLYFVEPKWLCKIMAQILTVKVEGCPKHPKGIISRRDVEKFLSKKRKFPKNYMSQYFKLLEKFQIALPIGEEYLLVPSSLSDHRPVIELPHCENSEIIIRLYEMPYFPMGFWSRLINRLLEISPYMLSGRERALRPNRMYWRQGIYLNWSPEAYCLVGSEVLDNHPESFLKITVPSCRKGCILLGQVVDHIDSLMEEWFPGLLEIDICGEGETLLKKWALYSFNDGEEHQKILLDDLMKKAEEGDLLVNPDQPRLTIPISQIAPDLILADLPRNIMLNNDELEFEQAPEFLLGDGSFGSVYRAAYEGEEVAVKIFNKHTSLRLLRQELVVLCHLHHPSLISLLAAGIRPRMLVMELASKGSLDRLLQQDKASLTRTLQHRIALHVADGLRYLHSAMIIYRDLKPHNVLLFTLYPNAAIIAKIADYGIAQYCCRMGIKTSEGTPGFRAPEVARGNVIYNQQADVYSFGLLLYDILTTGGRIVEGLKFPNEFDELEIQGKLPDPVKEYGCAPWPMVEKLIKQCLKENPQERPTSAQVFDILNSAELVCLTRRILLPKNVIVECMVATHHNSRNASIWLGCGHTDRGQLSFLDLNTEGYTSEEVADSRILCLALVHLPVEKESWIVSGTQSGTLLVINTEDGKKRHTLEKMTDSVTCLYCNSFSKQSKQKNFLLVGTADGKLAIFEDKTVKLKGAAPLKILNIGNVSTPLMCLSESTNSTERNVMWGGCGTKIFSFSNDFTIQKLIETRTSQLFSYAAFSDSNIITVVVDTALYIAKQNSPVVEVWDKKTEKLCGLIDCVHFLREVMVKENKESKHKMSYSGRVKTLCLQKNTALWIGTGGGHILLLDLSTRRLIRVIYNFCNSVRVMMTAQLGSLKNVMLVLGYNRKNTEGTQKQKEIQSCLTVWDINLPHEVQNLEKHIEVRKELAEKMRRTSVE
Method in brief: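 Kinase binding was detected by europium anti-tag antibody FRET with a competing tracer, so inhibitor binding lowers the FRET signal. IC50 came from a variable-slope sigmoidal fit of emission ratio against inhibitor concentration.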

MYLK = MYLK (Homo sapiens, UniProt Q15746); assay: MYLK assay (LanthaScreen Eu Kinase Binding Assay); conditions: 5 nM MYLK, 30 nM tracer 236, RT 1 h; read-out: MYLK Activites: IC50
Chain of MYLK (Q15746 whole entry): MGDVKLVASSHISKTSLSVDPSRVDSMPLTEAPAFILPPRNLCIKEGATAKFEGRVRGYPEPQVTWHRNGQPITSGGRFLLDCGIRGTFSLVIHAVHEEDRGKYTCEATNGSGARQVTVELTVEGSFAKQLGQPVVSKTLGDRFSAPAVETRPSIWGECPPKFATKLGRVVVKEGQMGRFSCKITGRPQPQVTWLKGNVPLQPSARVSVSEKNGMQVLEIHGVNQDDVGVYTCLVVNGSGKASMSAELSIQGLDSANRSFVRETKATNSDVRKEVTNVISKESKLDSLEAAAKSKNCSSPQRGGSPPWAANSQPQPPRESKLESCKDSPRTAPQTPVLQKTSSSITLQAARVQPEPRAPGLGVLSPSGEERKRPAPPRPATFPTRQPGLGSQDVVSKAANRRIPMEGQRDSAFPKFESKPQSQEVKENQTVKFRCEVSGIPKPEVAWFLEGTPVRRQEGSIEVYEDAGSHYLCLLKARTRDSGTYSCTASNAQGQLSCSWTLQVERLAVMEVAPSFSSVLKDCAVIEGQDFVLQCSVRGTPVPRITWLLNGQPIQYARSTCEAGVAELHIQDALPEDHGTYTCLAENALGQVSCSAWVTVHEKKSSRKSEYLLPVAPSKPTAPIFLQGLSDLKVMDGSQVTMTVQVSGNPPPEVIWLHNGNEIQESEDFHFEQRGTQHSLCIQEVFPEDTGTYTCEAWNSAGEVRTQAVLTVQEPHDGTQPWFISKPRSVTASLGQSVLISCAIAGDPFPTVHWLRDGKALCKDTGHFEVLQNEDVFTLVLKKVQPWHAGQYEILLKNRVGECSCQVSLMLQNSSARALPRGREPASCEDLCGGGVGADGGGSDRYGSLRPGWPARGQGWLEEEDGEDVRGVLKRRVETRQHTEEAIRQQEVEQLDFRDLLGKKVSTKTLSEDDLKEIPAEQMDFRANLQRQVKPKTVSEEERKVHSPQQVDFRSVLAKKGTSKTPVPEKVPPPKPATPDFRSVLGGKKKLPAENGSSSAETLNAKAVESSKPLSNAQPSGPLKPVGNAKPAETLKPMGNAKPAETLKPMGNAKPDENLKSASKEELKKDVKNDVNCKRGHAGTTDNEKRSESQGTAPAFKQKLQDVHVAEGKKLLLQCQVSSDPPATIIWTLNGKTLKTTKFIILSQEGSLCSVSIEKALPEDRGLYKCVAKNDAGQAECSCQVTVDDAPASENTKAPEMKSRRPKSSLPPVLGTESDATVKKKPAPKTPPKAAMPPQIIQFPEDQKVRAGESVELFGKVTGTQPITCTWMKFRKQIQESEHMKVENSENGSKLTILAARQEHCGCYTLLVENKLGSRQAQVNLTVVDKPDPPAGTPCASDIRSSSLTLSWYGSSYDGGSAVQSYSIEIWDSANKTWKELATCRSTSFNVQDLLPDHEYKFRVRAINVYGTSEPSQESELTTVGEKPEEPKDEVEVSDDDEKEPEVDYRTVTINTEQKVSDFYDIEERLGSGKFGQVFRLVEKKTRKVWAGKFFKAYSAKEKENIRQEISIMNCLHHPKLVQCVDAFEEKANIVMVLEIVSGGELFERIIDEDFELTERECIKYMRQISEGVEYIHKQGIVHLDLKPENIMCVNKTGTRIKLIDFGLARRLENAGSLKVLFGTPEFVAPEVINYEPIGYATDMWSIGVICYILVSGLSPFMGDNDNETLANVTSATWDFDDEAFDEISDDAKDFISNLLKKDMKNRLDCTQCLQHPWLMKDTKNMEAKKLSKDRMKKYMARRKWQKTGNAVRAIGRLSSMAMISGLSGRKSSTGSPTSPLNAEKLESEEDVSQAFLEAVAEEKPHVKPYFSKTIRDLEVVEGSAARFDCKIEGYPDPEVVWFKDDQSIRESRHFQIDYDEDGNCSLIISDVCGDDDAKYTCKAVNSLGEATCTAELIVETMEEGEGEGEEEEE
Experimental: In the assay LanthaScreen™ Eu Kinase Binding Assay by Invitrogen Corporation (Carlsbad) the effect of invention of a compound on the phosphorylation is determined by measurement of fluorescence intensity emission ratio based on the binding and displacement of a proprietary, Alexa Fluor® 647-labeled, ATP-competitive kinase inhibitor scaffold (kinase tracer) to the kinase of interest as described above.
To the wells of an 384 well small volume plate (Greiner, Frickenhausen) are added (i) the compound under test in 5% DMSO/distilled water (5 μl), (ii) 5 μl of the kinase antibody mixture resulting in a final concentration 5 nM MYLK, 2 nM EU-Anti-GST antibody in 1× kinase buffer A. The reaction was started with addition of (iii) 5 μl resulting in a final concentration of 30 nM tracer 236. The assay plate was incubated at RT for 1 h and fluorescence intensitiy readings were collected using a TECAN M1000 at two wavelengthes of λex 340/λem 615 nm and λex 340/λem 665 nm with a delay time of 100 μs and an integration time of 200 μs after 60 minutes. The emission ratio was calculated by division of the acceptor/tracer emission ([…]) by the antibody/donor emission ([…]). The inhibitor concentration was plotted versus the emission ratio to determine the IC50 using XLFit 5.0 (IDBS, Guildford) to fit to a sigmoidal dose response curve with a variable slope.

## COc1cccc2c1nc(Nc1ccc(N3CCN(C)CC3)cc1)c1n[nH]cc12 [Example #166, (6-Methoxy-2H-pyrazolo[3,4-c]quinolin-4-yl)-[4-(4-methyl-piperazin-1-yl)-phenyl]-amine]
SYK kinase
  Ki: 10 to 100 nM
LRRK2
  IC50: 100 to 1000 nM
MYLK
  IC50: < 5000 nM

## Cc1[nH]nc2c(Nc3ccc(N4CCN(C)CC4)cc3)nc3ccccc3c12 [Example #208, [4-(4-Methyl-piperazin-1-yl)-phenyl]-(1-methyl-2H-pyrazolo[3,4-c]quinolin-4-yl)-amine]
SYK kinase
  Ki: 10 to 100 nM
LRRK2
  IC50: 100 to 1000 nM
MYLK
  IC50: < 5000 nM

## COCC1CCCN1C(=O)c1ccc(Nc2nc3ccc(OC)cc3c3c[nH]nc23)cc1 (stereo not drawn) [Example #301, (4-((8-methoxy-2H-pyrazolo[3,4-c]quinolin-4-yl)amino)phenyl)(2-(methoxymethyl)pyrrolidin-1-yl)methanone]
SYK kinase
  Ki: 10 to 100 nM
LRRK2
  IC50: 10 to 100 nM
MYLK
  IC50: < 5000 nM

## COc1cc(OC)c2nc(Nc3ccc(CN(C)C)cc3)c3n[nH]cc3c2c1 [Example #284, (6,8-Dimethoxy-2H-pyrazolo[3,4-c]quinolin-4-yl)-(4-dimethylaminomethyl-phenyl)-amine]
SYK kinase
  Ki: 10 to 100 nM
LRRK2
  IC50: 100 to 1000 nM
MYLK
  IC50: < 5000 nM

## COc1cc2nc(Nc3ccc(N4CCN(C)CC4)cc3)c3n[nH]cc3c2cc1OC [Example #134, (7,8-Dimethoxy-2H-pyrazolo[3,4-c]quinolin-4-yl)-[4-(4-methyl-piperazin-1-yl)-phenyl]-amine]
SYK kinase
  Ki: 10 to 100 nM
LRRK2
  IC50: 100 to 1000 nM
MYLK
  IC50: < 5000 nM

## COc1ccc2nc(Nc3cccc(S(N)(=O)=O)c3)c3n[nH]cc3c2c1 [Example #131, 3-(8-Methoxy-2H-pyrazolo[3,4-c]quinolin-4-ylamino)-benzenesulfonamide]
SYK kinase
  Ki: 100 to 1000 nM
LRRK2
  IC50: 10 to 100 nM
MYLK
  IC50: < 5000 nM

## COc1ccc2nc(Nc3ccc4cc(C(=O)O)ccc4c3)c3n[nH]cc3c2c1 [Example #286, 6-((8-methoxy-2H-pyrazolo[3,4-c]quinolin-4-yl)amino)-2-naphthoic acid]
SYK kinase
  Ki: 10 to 100 nM
LRRK2
  IC50: < 10 nM
MYLK
  IC50: < 5000 nM

## COc1ccc2nc(Nc3ccc4[nH]cnc4c3)c3n[nH]cc3c2c1 [Example #39, (1H-Benzoimidazol-5-yl)-(8-methoxy-2H-pyrazolo[3,4-c]quinolin-4-yl)-amine]
SYK kinase
  Ki: 10 to 100 nM
LRRK2
  IC50: 100 to 1000 nM
MYLK
  IC50: < 5000 nM

## COc1ccc2nc(Nc3ccccc3)c3n[nH]cc3c2c1 [Example #13, (8-Methoxy-2H-pyrazolo[3,4-c]quinolin-4-yl)-phenyl-amine]
SYK kinase
  Ki: 10 to 100 nM
LRRK2
  IC50: 100 to 1000 nM
MYLK
  IC50: < 5000 nM

## COc1cc(OC)c2nc(Nc3ccc(CN4CCN(C)CC4)cc3)c3n[nH]cc3c2c1 [Example #282, (6,8-Dimethoxy-2H-pyrazolo[3,4-c]quinolin-4-yl)-[4-(4-methyl-piperazin-1-ylmethyl)-phenyl]-amine]
SYK kinase
  Ki: 10 to 100 nM
LRRK2
  IC50: 100 to 1000 nM
MYLK
  IC50: < 5000 nM

## COc1cc(OC)c2nc(Nc3ccc(C(=O)N4CCN(C)CC4)cc3)c3n[nH]cc3c2c1 [Example #283, (4-((6,8-dimethoxy-2H-pyrazolo[3,4-c]quinolin-4-yl)amino)phenyl)(4-methylpiperazin-1-yl)methanone]
SYK kinase
  Ki: 10 to 100 nM
LRRK2
  IC50: 100 to 1000 nM
MYLK
  IC50: < 5000 nM

## Cc1[nH]nc2c(Nc3ccc4cn[nH]c4c3)nc3ccccc3c12 [Example #209, (1H-Indazol-6-yl)-(1-methyl-2H-pyrazolo[3,4-c]quinolin-4-yl)-amine]
SYK kinase
  Ki: < 10 nM
LRRK2
  IC50: 10 to 100 nM
MYLK
  IC50: < 5000 nM

## COc1cc2nc(Nc3ccc(N4CCOCC4)cc3)c3n[nH]cc3c2cc1OC [Example #133, (7,8-Dimethoxy-2H-pyrazolo[3,4-c]quinolin-4-yl)-(4-morpholin-4-yl-phenyl)-amine]
SYK kinase
  Ki: 10 to 100 nM
LRRK2
  IC50: 100 to 1000 nM
MYLK
  IC50: < 5000 nM

## COc1cccc2c1nc(Nc1ccc3c(c1)NC(=O)CCC3)c1n[nH]cc12 [Example #241, 8-((6-methoxy-2H-pyrazolo[3,4-c]quinolin-4-yl)amino)-4,5-dihydro-1H-benzo[b]azepin-2(3H)-one]
SYK kinase
  Ki: 10 to 100 nM
LRRK2
  IC50: 100 to 1000 nM
MYLK
  IC50: < 5000 nM

## COc1ccc2nc(Nc3ccc(OC)nc3)c3n[nH]cc3c2c1 [Example #206, (8-Methoxy-2H-pyrazolo[3,4-c]quinolin-4-yl)-(6-methoxy-pyridin-3-yl)-amine]
SYK kinase
  Ki: 10 to 100 nM
LRRK2
  IC50: 100 to 1000 nM
MYLK
  IC50: < 5000 nM

## COc1ccc2nc(Nc3ccc4c(c3)COC4)c3n[nH]cc3c2c1 [Example #147, (1,3-Dihydro-isobenzofuran-5-yl)-(8-methoxy-2H-pyrazolo[3,4-c]quinolin-4-yl)-amine]
SYK kinase
  Ki: 10 to 100 nM
LRRK2
  IC50: 10 to 100 nM
MYLK
  IC50: < 5000 nM

## COc1ccc2nc(Nc3ccc4c(c3)NC(=O)CCC4)c3n[nH]cc3c2c1 [Example #188, 8-(8-Methoxy-2H-pyrazolo[3,4-c]quinolin-4-ylamino)-1,3,4,5-tetrahydro-benzo[b]azepin-2-one]
SYK kinase
  Ki: < 10 nM
LRRK2
  IC50: 10 to 100 nM
MYLK
  IC50: < 5000 nM

## COc1ccc2nc(Nc3cccc(OCCN4CCNCC4)c3)c3n[nH]cc3c2c1 [Example #229, (8-Methoxy-2H-pyrazolo[3,4-c]quinolin-4-yl)-[3-(2-piperazin-1-yl-ethoxy)-phenyl]-amine]
SYK kinase
  Ki: 100 to 1000 nM
LRRK2
  IC50: 100 to 1000 nM
MYLK
  IC50: < 5000 nM

## COc1ccc2nc(Nc3ccc(N4CCN(C)CC4)c(Cl)c3)c3n[nH]cc3c2c1 [Example #195, [3-Chloro-4-(4-methyl-piperazin-1-yl)-phenyl]-(8-methoxy-2H-pyrazolo[3,4-c]quinolin-4-yl)-amine]
SYK kinase
  Ki: 10 to 100 nM
LRRK2
  IC50: 100 to 1000 nM
MYLK
  IC50: < 5000 nM

## COc1ccc2nc(Nc3ccc4c(c3)CN(C)C4)c3n[nH]cc3c2c1 [Example #294, 8-methoxy-N-(2-methylisoindolin-5-yl)-2H-pyrazolo[3,4-c]quinolin-4-amine]
SYK kinase
  Ki: 10 to 100 nM
LRRK2
  IC50: 100 to 1000 nM
MYLK
  IC50: < 5000 nM

## COc1ccc2nc(Nc3cn[nH]c3)c3[nH]ncc3c2c1 [Example #121, (8-Methoxy-3H-pyrazolo[3,4-c]quinolin-4-yl)-(1H-pyrazol-4-yl)-amine]
SYK kinase
  Ki: 10 to 100 nM
LRRK2
  IC50: 100 to 1000 nM
MYLK
  IC50: < 5000 nM

## COc1ccc2nc(Nc3ccc(NCCN(C)C)nc3)c3n[nH]cc3c2c1 [Example #254, N2-(2-(dimethylamino)ethyl)-N5-(8-methoxy-2H-pyrazolo[3,4-c]quinolin-4-yl)pyridine-2,5-diamine]
SYK kinase
  Ki: 10 to 100 nM
LRRK2
  IC50: 100 to 1000 nM
MYLK
  IC50: < 5000 nM

## COc1ccc2nc(Nc3ccc(OC)c(OC)c3)c3n[nH]cc3c2c1 [Example #53, (3,4-Dimethoxy-phenyl)-(8-methoxy-2H-pyrazolo[3,4-c]quinolin-4-yl)-amine]
SYK kinase
  Ki: 10 to 100 nM
LRRK2
  IC50: 100 to 1000 nM
MYLK
  IC50: < 5000 nM

## CN(C)c1ccc(Nc2nc3ccc(Br)cc3c3c[nH]nc23)cc1 [Example #84, N-(8-Bromo-2H-pyrazolo[3,4-c]quinolin-4-yl)-N′,N′-dimethyl-benzene-1,4-diamine]
SYK kinase
  Ki: 10 to 100 nM
LRRK2
  IC50: 100 to 1000 nM
MYLK
  IC50: < 5000 nM

## COc1ccc2nc(Nc3cccc(C(N)=O)c3)c3n[nH]cc3c2c1 [Example #52, 3-(8-Methoxy-2H-pyrazolo[3,4-c]quinolin-4-ylamino)-benzamide]
SYK kinase
  Ki: 100 to 1000 nM
LRRK2
  IC50: 100 to 1000 nM
MYLK
  IC50: < 5000 nM

## CC(=O)N1CCN(c2ccc(Nc3nc4ccc(F)cc4c4cn[nH]c34)cc2)CC1 [Example #323, 1-(4-(4-((8-fluoro-3H-pyrazolo[3,4-c]quinolin-4-yl)amino)phenyl)piperazin-1-yl)ethan-1-one]
SYK kinase
  Ki: 100 to 1000 nM
LRRK2
  IC50: 100 to 1000 nM
MYLK
  IC50: < 5000 nM

## COc1ccc2nc(Nc3ccc(C(=O)N4CCOCC4)cc3)c3n[nH]cc3c2c1 [Example #232, [4-(8-Methoxy-2H-pyrazolo[3,4-c]quinolin-4-ylamino)-phenyl]-morpholin-4-yl-methanone]
SYK kinase
  Ki: 10 to 100 nM
LRRK2
  IC50: 100 to 1000 nM
MYLK
  IC50: < 5000 nM

## CCN1CCN(c2ccc(Nc3nc4ccc(OC)cc4c4c[nH]nc34)cc2)CC1 [Example #187, [4-(4-Ethyl-piperazin-1-yl)-phenyl]-(8-methoxy-2H-pyrazolo[3,4-c]quinolin-4-yl)-amine]
SYK kinase
  Ki: < 10 nM
LRRK2
  IC50: 10 to 100 nM
MYLK
  IC50: < 5000 nM

## COc1ccc2nc(Nc3ccc(NC(C)=O)cc3)c3n[nH]cc3c2c1 [Example #128, N-[4-(8-Methoxy-2H-pyrazolo[3,4-c]quinolin-4-ylamino)-phenyl]-acetamide]
SYK kinase
  Ki: 10 to 100 nM
LRRK2
  IC50: 100 to 1000 nM
MYLK
  IC50: < 5000 nM
